Reference: ChEMBL document CHEMBL1201862, “PubChem BioAssay data set” (2004)
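Each compound was tested at five concentrations against cells in 96-well plates for 48 hours. GI50 = concentration required for 50% inhibition of growth.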 Calls of active or inactive are those of the source. Cut-off read from the data, not from the text of the source: active = GI50 up to about 1.1 µM and inactive = higher. Where a SMILES comes first, the peptide text is derived from it. The star is where a group is joined. Boc = CC(C)(C)OC(=O)*

Assays:
Assay in all cases: inhibition of tumour cell growth, NCI panel, 48 h
HOP-18 = test system: HOP-18
KM-20L2 = test system: KM-20L2
DMS-114 = test system: DMS-114
DMS-273 = test system: DMS-273
M19-MEL = test system: M19-MEL
LXFL 529 = test system: LXFL 529
XF498 = test system: XF498
DLD-1 = test system: DLD-1
SNB-78 = test system: SNB-78

Measured: GI50

O=S(=O)(O)CS(=O)(=O)OCCCl
inactive: HOP-18 81.8 µM | KM-20L2 > 100 µM | DMS-114 > 100 µM | DMS-273 > 100 µM | M19-MEL > 100 µM | LXFL 529 > 100 µM | XF498 > 100 µM | DLD-1 > 100 µM | SNB-78 > 100 µM

COc1ccc(NC(=O)CC(=O)n2nc(-c3ccccc3)c(/N=N/c3ccccc3C(=O)O)c2-c2ccccc2)cc1
inactive: KM-20L2 > 100 µM | DMS-114 > 100 µM | DMS-273 > 100 µM | M19-MEL > 100 µM | LXFL 529 > 100 µM | DLD-1 > 100 µM

CCOC(=O)C/C(=N\c1cc(C)on1)N(CC)CC.[O-][Cl+3]([O-])([O-])O
inactive: KM-20L2 > 100 µM | DMS-114 > 100 µM | DMS-273 > 100 µM | M19-MEL > 100 µM | LXFL 529 > 100 µM | XF498 > 100 µM | DLD-1 > 100 µM | SNB-78 > 100 µM

C1CN(c2nnc(N3CCC3)nn2)C1
inactive: HOP-18 > 100 µM | KM-20L2 > 44.8 µM | DMS-114 21.3 µM | DMS-273 > 43.2 µM | M19-MEL 15.1 µM | LXFL 529 21.3 µM | XF498 22.2 µM | DLD-1 > 100 µM | SNB-78 57.4 µM

CCn1c(O)c(C(=O)Nc2cccs2)c(=O)n(CC)c1=S
inactive: KM-20L2 17.7 µM | DMS-114 15.4 µM | M19-MEL 19.1 µM | LXFL 529 14.9 µM | DLD-1 33.3 µM | SNB-78 17.8 µM

COC(=O)Cc1cc(=O)[nH]c2c1C(=O)CCC2
inactive: HOP-18 > 100 µM | LXFL 529 > 100 µM | XF498 > 100 µM | DLD-1 > 100 µM

NC1=NC(=O)C(CC(=O)Nc2ccc([N+](=O)[O-])cc2[N+](=O)[O-])S1 (stereo not drawn)
inactive: HOP-18 52 µM | KM-20L2 > 100 µM | DMS-114 > 100 µM | M19-MEL > 100 µM | LXFL 529 > 100 µM | XF498 > 100 µM | DLD-1 > 100 µM | SNB-78 > 100 µM

O=[N+]([O-])c1cc2c(cc1O)[nH]c1cccc([N+](=O)[O-])c12
inactive: HOP-18 33.9 µM | DMS-114 > 100 µM | DMS-273 > 100 µM | M19-MEL > 100 µM | XF498 > 100 µM | DLD-1 > 100 µM | SNB-78 > 100 µM

COc1ccc2c(C(=O)O)cc3cc(OC)c(OC)cc3c2c1
inactive: HOP-18 > 100 µM | KM-20L2 > 100 µM | DMS-273 > 100 µM | M19-MEL > 100 µM | LXFL 529 > 100 µM | XF498 > 100 µM | DLD-1 > 100 µM | SNB-78 > 100 µM

COc1ccc(/C(Cl)=C/c2ccc(Cl)c(Cl)c2)cc1
inactive: HOP-18 16.5 µM | KM-20L2 22.8 µM | DMS-114 16.6 µM | DMS-273 24.4 µM | M19-MEL 30.6 µM | LXFL 529 33.8 µM | XF498 22.4 µM | DLD-1 25.9 µM | SNB-78 23.6 µM

CC1(SCC(N)C(=O)O)CC(=O)NC1=O (stereo not drawn)
inactive: KM-20L2 > 100 µM | DMS-114 > 100 µM | DMS-273 > 100 µM | M19-MEL > 100 µM | LXFL 529 > 100 µM | SNB-78 > 100 µM

COc1ccc2c(c1)[n+]([O-])c(C(N)=O)c(N)[n+]2[O-]
inactive: HOP-18 > 100 µM | KM-20L2 37.2 µM | DMS-114 35.6 µM | DMS-273 71.9 µM | M19-MEL 73.3 µM | LXFL 529 66.4 µM | DLD-1 > 100 µM | SNB-78 > 100 µM

CC(=O)CC(=O)CCCC(=O)Nc1ccc(Cl)cc1C
inactive: HOP-18 > 100 µM | KM-20L2 > 100 µM | DMS-114 > 100 µM | DMS-273 > 100 µM | M19-MEL > 100 µM | LXFL 529 > 100 µM | DLD-1 > 100 µM | SNB-78 > 100 µM

N#Cc1c(NN)nc(NN)c(C#N)c1-c1ccccc1
inactive: HOP-18 > 100 µM | KM-20L2 > 100 µM | DMS-114 > 100 µM | DMS-273 > 100 µM | M19-MEL > 100 µM | LXFL 529 > 100 µM | XF498 > 100 µM | DLD-1 > 100 µM | SNB-78 > 100 µM

CC(C)(C)OC(=O)NC(Cc1ccc(O)cc1)C(=O)N1CCCC1C(=O)O (stereo not drawn) (Boc-Tyr-Pro-OH; configuration not given here)
inactive: HOP-18 > 100 µM | KM-20L2 > 100 µM | DMS-114 > 100 µM | DMS-273 > 100 µM | M19-MEL > 100 µM | LXFL 529 > 100 µM | XF498 > 100 µM | DLD-1 > 100 µM | SNB-78 > 100 µM

COC1/C(=C\C(C)=O)c2ccccc2N1C(C)=O (stereo not drawn)
inactive: HOP-18 > 100 µM | KM-20L2 > 100 µM | DMS-273 > 100 µM | M19-MEL > 100 µM | LXFL 529 > 100 µM | XF498 > 100 µM | DLD-1 > 100 µM

COc1ccc(/C(Cl)=C(\C=O)c2cc(OC)c(OC)c(OC)c2)cc1OC
inactive: HOP-18 12.2 µM | KM-20L2 22.8 µM | DMS-114 12.1 µM | DMS-273 35.8 µM | M19-MEL 35.2 µM | LXFL 529 11.2 µM | SNB-78 16.8 µM

c1ccc2c(CNCCCN3CCN(CCCNCc4cccc5ccccc45)CC3)cccc2c1
inactive: HOP-18 6.21 µM | KM-20L2 1.7 µM | DMS-114 2 µM | DMS-273 1.97 µM | M19-MEL 1.89 µM | LXFL 529 1.77 µM | XF498 1.77 µM | DLD-1 1.75 µM | SNB-78 2.21 µM

c1ccc2cc(-c3cc4ccccc4s3)ccc2c1
inactive: HOP-18 > 100 µM | KM-20L2 > 100 µM | DMS-114 > 100 µM | DMS-273 > 100 µM | M19-MEL > 100 µM | XF498 > 100 µM | DLD-1 > 100 µM | SNB-78 > 100 µM

O=C(CC1(O)C(=O)Nc2ccccc21)c1ccco1 (stereo not drawn)
inactive: KM-20L2 > 100 µM | DMS-114 > 100 µM | DMS-273 > 100 µM | M19-MEL > 100 µM | LXFL 529 > 100 µM | XF498 > 100 µM | DLD-1 > 100 µM | SNB-78 > 100 µM

CCC(=O)c1cn(C)c(=O)c2ccccc12
inactive: KM-20L2 > 100 µM | DMS-114 > 100 µM | DMS-273 > 100 µM | LXFL 529 > 100 µM | XF498 > 100 µM | DLD-1 > 100 µM | SNB-78 > 100 µM

CSc1cnc2ccccc2c1Sc1c[nH]c2ccccc2c1=O
inactive: HOP-18 14.9 µM | KM-20L2 4.42 µM | DMS-114 5.7 µM | DMS-273 8.38 µM | M19-MEL 5.22 µM | LXFL 529 8.67 µM | DLD-1 11.7 µM | SNB-78 57.3 µM
